Earlier results in patent US8748695B2, “Molecular markers linked to PPO inhibitor tolerance in soybeans” (Pioneer Hi-Bred International, Inc., priority 2008, dated 2014).

Tests used:
soybean cultivars = details: in vivo

Cc1nn(-c2cc(CC(Cl)C(=O)O)c(Cl)cc2F)c(=O)n1C(F)F (centres unmarked) [Carfentrazone]
half-life: approximately 4 days

Cc1nn(-c2cc(NS(C)(=O)=O)c(Cl)cc2Cl)c(=O)n1C(F)F [sulfentrazone]
Growth Reduction Index (soybean cultivars): 20%
